In patent EP4806435A1, “DIHYDROCHROMENE-DERIVATIVE-CONTAINING THERAPEUTIC AGENT FOR CANCER” (Sumitomo Pharma Co., Ltd., priority 2023, dated 2025):

Test system: patients with recurrent malignant glioma classified as WHO grade III or IV
Assay: Phase 1 dose-escalation clinical trial: safety (TEAEs, DLTs, MTD);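 note: dosing continued until unacceptable toxicity, consent withdrawal, loss to follow-up or investigator/sponsor decision, with cohorts of 1-6 patients per dose level and MTD estimated by BLRM from cumulative DLT data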
[1] = 20 mg (N=2), cutoff April 21, 2023
[2] = 20 mg QD (N=2), cutoff April 21, 2024
[3] = 40 mg (N=4), cutoff April 21, 2023
[4] = 40 mg QD (N=4), cutoff April 21, 2024
[5] = 80 mg (N=3), cutoff April 21, 2023
[6] = 80 mg QD (N=3), cutoff April 21, 2024
[7] = 120 mg (N=6), cutoff April 21, 2023
[8] = 120 mg QD (N=6), cutoff April 21, 2024
[9] = 180 mg (N=3), cutoff April 21, 2023
[10] = 180 mg QD (N=6), cutoff April 21, 2024

Method: Administration to each subject was continued until unacceptable toxicity occurred, consent was withdrawn, the subject was lost to follow-up, or discontinuation was determined by the investigator and/or the sponsor.
The present study consists of two parts: a dose-escalation part (Part 1) and a dose-expansion part (Part 2).
Each dose level was evaluated in cohorts of 1-6 patients. In all cohorts, administration of the investigational drug to the second and subsequent patients was permitted after completion of all safety assessments on Day 8 of Cycle 1 in the first patient. […] At dose level 2 in the dose-escalation part, at least three patients were required to be evaluated before escalation to a higher dose level. After completion of each cohort, the probability of observing a DLT at each dose level in the present study was updated using the BLRM based on cumulative data from the preceding cohorts, and the MTD was estimated.

Question: Which results are given for `CC1(C)Oc2cc(Cl)ccc2[C@@H]2OCC3(CCN(CCn4ccnc4)CC3)C[C@H]21` [Compound 1, (4'aR,10'bR)-8'-chloro-1-[2-(1H-imidazol-1-yl)ethyl]-5',5'-dimethyl-4'a,10'b-dihydro-2'H,4'H,5'H-spiro[piperidine-4,3'-pyrano[3,2-c][1]benzopyran] diphosphate]?
Answer: Number of patients with any TEAE [1]: 2 (100) n (%); TEAE: constipation [1]: 0 n (%); TEAE: decreased appetite [1]: 0 n (%); TEAE: decreased lymphocyte count [1]: 0 n (%); TEAE: decreased neutrophil count [1]: 0 n (%); TEAE: decreased platelet count [1]: 0 n (%); TEAE: decreased white blood cell count [1]: 0 n (%); TEAE: dry skin [1]: 1 (50.0) n (%); TEAE: fall [1]: 0 n (%); TEAE: headache [1]: 0 n (%); TEAE: hypertrigly-ceridaemia [1]: 0 n (%); TEAE: hyponatremia [1]: 0 n (%); TEAE: increased alanine aminotransferase [1]: 1 (50.0) n (%); TEAE: increased aspartate aminotransferase [1]: 1 (50.0) n (%); TEAE: nausea [1]: 1 (50.0) n (%); TEAE: seizure [1]: 1 (50.0) n (%); TEAE: vomiting [1]: 0 n (%); Number of Patients with Any TEAE [2]: 2 (100) n (%); TEAE: Confusional state [2]: 0 n (%); TEAE: Gait disturbance [2]: 0 n (%); TEAE: Gastrointestinal disorder [2]: 0 n (%); TEAE: Hiccups [2]: 0 n (%); TEAE: Tremor [2]: 0 n (%); TEAE: alopecia [2]: 0 n (%); TEAE: constipation [2]: 0 n (%); TEAE: decreased appetite [2]: 0 n (%); TEAE: decreased lymphocyte count [2]: 0 n (%); TEAE: decreased neutrophil count [2]: 0 n (%); TEAE: decreased platelet count [2]: 0 n (%); TEAE: diarrhea [2]: 0 n (%); TEAE: dry skin [2]: 1 (50.0) n (%); TEAE: fall [2]: 0 n (%); TEAE: fatigue [2]: 0 n (%); TEAE: headache [2]: 0 n (%); TEAE: hypertrigly-ceridaemia [2]: 0 n (%); TEAE: hyponatremia [2]: 0 n (%); TEAE: increase in blood cholesterol [2]: 0 n (%); TEAE: increased alanine aminotransferase [2]: 1 (50.0) n (%); TEAE: increased aspartate aminotransferase [2]: 1 (50.0) n (%); TEAE: maculopapular rash [2]: 0 n (%); TEAE: nausea [2]: 1 (50.0) n (%); TEAE: seizure [2]: 1 (50.0) n (%); TEAE: vomiting [2]: 0 n (%); dose-limiting toxicities (20 mg to 240 mg, cutoff April 21, 2023): No dose-limiting toxicities were observed at any dose level; serious TEAE: seizure (20 mg, 120 mg, and 180 mg groups, cutoff April 21, 2023): three; Number of patients with any TEAE [3]: 4 (100) n (%); TEAE: constipation [3]: 1 (25.0) n (%); TEAE: decreased appetite [3]: 1 (25.0) n (%); TEAE: decreased lymphocyte count [3]: 2 (50.0) n (%); TEAE: decreased neutrophil count [3]: 2 (50.0) n (%); TEAE: decreased platelet count [3]: 2 (50.0) n (%); TEAE: decreased white blood cell count [3]: 2 (50.0) n (%); TEAE: dry skin [3]: 0 n (%); TEAE: fall [3]: 1 (25.0) n (%); TEAE: headache [3]: 1 (25.0) n (%); TEAE: hypertrigly-ceridaemia [3]: 1 (25.0) n (%); TEAE: hyponatremia [3]: 1 (25.0) n (%); TEAE: increased alanine aminotransferase [3]: 1 (25.0) n (%); TEAE: increased aspartate aminotransferase [3]: 2 (50.0) n (%); TEAE: nausea [3]: 2 (50.0) n (%); TEAE: seizure [3]: 1 (25.0) n (%); TEAE: vomiting [3]: 1 (25.0) n (%); Number of Patients with Any TEAE [4]: 4 (100) n (%); TEAE: Confusional state [4]: 0 n (%); TEAE: Gait disturbance [4]: 0 n (%); TEAE: Gastrointestinal disorder [4]: 0 n (%); TEAE: Hiccups [4]: 2 (50.0) n (%); TEAE: Tremor [4]: 0 n (%); TEAE: alopecia [4]: 1 (25.0) n (%); TEAE: constipation [4]: 1 (25.0) n (%); TEAE: decreased appetite [4]: 1 (25.0) n (%); TEAE: decreased lymphocyte count [4]: 2 (50.0) n (%); TEAE: decreased neutrophil count [4]: 2 (50.0) n (%); TEAE: decreased platelet count [4]: 2 (50.0) n (%); TEAE: diarrhea [4]: 0 n (%); TEAE: dry skin [4]: 0 n (%); TEAE: fall [4]: 1 (25.0) n (%); TEAE: fatigue [4]: 1 (25.0) n (%); TEAE: headache [4]: 1 (25.0) n (%); TEAE: hypertrigly-ceridaemia [4]: 1 (25.0) n (%); TEAE: hyponatremia [4]: 1 (25.0) n (%); TEAE: increase in blood cholesterol [4]: 0 n (%); TEAE: increased alanine aminotransferase [4]: 1 (25.0) n (%); TEAE: increased aspartate aminotransferase [4]: 2 (50.0) n (%); TEAE: maculopapular rash [4]: 0 n (%); TEAE: nausea [4]: 2 (50.0) n (%); TEAE: seizure [4]: 1 (25.0) n (%); TEAE: vomiting [4]: 1 (25.0) n (%); serious TEAE: disease progression (40 mg QD group, cutoff April 21, 2024): one; serious TEAE: disease progression (40 mg group, cutoff April 21, 2023): one; Number of patients with any TEAE [5]: 3 (100) n (%); TEAE: constipation [5]: 0 n (%); TEAE: decreased appetite [5]: 0 n (%); TEAE: decreased lymphocyte count [5]: 0 n (%); TEAE: decreased neutrophil count [5]: 2 (66.7) n (%); TEAE: decreased platelet count [5]: 1 (33.3) n (%); TEAE: decreased white blood cell count [5]: 1 (33.3) n (%); TEAE: dry skin [5]: 0 n (%); TEAE: fall [5]: 0 n (%); TEAE: headache [5]: 1 (33.3) n (%); TEAE: hypertrigly-ceridaemia [5]: 0 n (%); TEAE: hyponatremia [5]: 1 (33.3) n (%); TEAE: increased alanine aminotransferase [5]: 2 (66.7) n (%); TEAE: increased aspartate aminotransferase [5]: 0 n (%); TEAE: nausea [5]: 2 (66.7) n (%); TEAE: seizure [5]: 0 n (%); TEAE: vomiting [5]: 0 n (%); Number of Patients with Any TEAE [6]: 3 (100) n (%); TEAE: Confusional state [6]: 0 n (%); TEAE: Gait disturbance [6]: 0 n (%); TEAE: Gastrointestinal disorder [6]: 0 n (%); TEAE: Hiccups [6]: 0 n (%); TEAE: Tremor [6]: 0 n (%); TEAE: alopecia [6]: 0 n (%); TEAE: constipation [6]: 0 n (%); TEAE: decreased appetite [6]: 0 n (%); TEAE: decreased lymphocyte count [6]: 0 n (%); TEAE: decreased neutrophil count [6]: 2 (66.7) n (%); TEAE: decreased platelet count [6]: 1 (33.3) n (%); TEAE: diarrhea [6]: 0 n (%); TEAE: dry skin [6]: 0 n (%); TEAE: fall [6]: 0 n (%); TEAE: fatigue [6]: 0 n (%); TEAE: headache [6]: 1 (33.3) n (%); TEAE: hypertrigly-ceridaemia [6]: 0 n (%); TEAE: hyponatremia [6]: 1 (33.3) n (%); TEAE: increase in blood cholesterol [6]: 0 n (%); TEAE: increased alanine aminotransferase [6]: 2 (66.7) n (%); TEAE: increased aspartate aminotransferase [6]: 0 n (%); TEAE: maculopapular rash [6]: 0 n (%); TEAE: nausea [6]: 2 (66.7) n (%); TEAE: seizure [6]: 0 n (%); TEAE: vomiting [6]: 0 n (%); Number of patients with any TEAE [7]: 6 (100) n (%); TEAE: constipation [7]: 2 (33.3) n (%); TEAE: decreased appetite [7]: 0 n (%); TEAE: decreased lymphocyte count [7]: 0 n (%); TEAE: decreased neutrophil count [7]: 1 (16.7) n (%); TEAE: decreased platelet count [7]: 0 n (%); TEAE: decreased white blood cell count [7]: 0 n (%); TEAE: dry skin [7]: 1 (16.7) n (%); TEAE: fall [7]: 1 (16.7) n (%); TEAE: headache [7]: 2 (33.3) n (%); TEAE: hypertrigly-ceridaemia [7]: 1 (16.7) n (%); TEAE: hyponatremia [7]: 1 (16.7) n (%); TEAE: increased alanine aminotransferase [7]: 2 (33.3) n (%); TEAE: increased aspartate aminotransferase [7]: 1 (16.7) n (%); TEAE: nausea [7]: 2 (33.3) n (%); TEAE: seizure [7]: 1 (16.7) n (%); TEAE: vomiting [7]: 2 (33.3) n (%); Number of Patients with Any TEAE [8]: 6 (100) n (%); TEAE: Confusional state [8]: 0 n (%); TEAE: Gait disturbance [8]: 0 n (%); TEAE: Gastrointestinal disorder [8]: 0 n (%); TEAE: Hiccups [8]: 0 n (%); TEAE: Tremor [8]: 0 n (%); TEAE: alopecia [8]: 0 n (%); TEAE: constipation [8]: 2 (33.3) n (%); TEAE: decreased appetite [8]: 0 n (%); TEAE: decreased lymphocyte count [8]: 0 n (%); TEAE: decreased neutrophil count [8]: 1 (16.7) n (%); TEAE: decreased platelet count [8]: 0 n (%); TEAE: diarrhea [8]: 1 (16.7) n (%); TEAE: dry skin [8]: 1 (16.7) n (%); TEAE: fall [8]: 1 (16.7) n (%); TEAE: fatigue [8]: 0 n (%); TEAE: headache [8]: 2 (33.3) n (%); TEAE: hypertrigly-ceridaemia [8]: 1 (16.7) n (%); TEAE: hyponatremia [8]: 1 (16.7) n (%); TEAE: increase in blood cholesterol [8]: 0 n (%); TEAE: increased alanine aminotransferase [8]: 2 (33.3) n (%); TEAE: increased aspartate aminotransferase [8]: 1 (16.7) n (%); TEAE: maculopapular rash [8]: 0 n (%); TEAE: nausea [8]: 2 (33.3) n (%); TEAE: seizure [8]: 1 (16.7) n (%); TEAE: vomiting [8]: 2 (33.3) n (%); serious TEAE: aphasia (120 mg QD group, cutoff April 21, 2024): one; serious TEAE: aphasia (120 mg group, cutoff April 21, 2023): one; Number of patients with any TEAE [9]: 3 (100) n (%); TEAE: constipation [9]: 1 (33.3) n (%); TEAE: decreased appetite [9]: 1 (33.3) n (%); TEAE: decreased lymphocyte count [9]: 1 (33.3) n (%); TEAE: decreased neutrophil count [9]: 1 (33.3) n (%); TEAE: decreased platelet count [9]: 1 (33.3) n (%); TEAE: decreased white blood cell count [9]: 0 n (%); TEAE: dry skin [9]: 0 n (%); TEAE: fall [9]: 1 (33.3) n (%); TEAE: headache [9]: 0 n (%); TEAE: hypertrigly-ceridaemia [9]: 1 (33.3) n (%); TEAE: hyponatremia [9]: 0 n (%); TEAE: increased alanine aminotransferase [9]: 2 (66.7) n (%); TEAE: increased aspartate aminotransferase [9]: 0 n (%); TEAE: nausea [9]: 1 (33.3) n (%); TEAE: seizure [9]: 1 (33.3) n (%); TEAE: vomiting [9]: 1 (33.3) n (%); Number of Patients with Any TEAE [10]: 6 (100) n (%); TEAE: Confusional state [10]: 1 (16.7) n (%); TEAE: Gait disturbance [10]: 1 (16.7) n (%); TEAE: Gastrointestinal disorder [10]: 2 (33.3) n (%); TEAE: Hiccups [10]: 0 n (%); TEAE: Tremor [10]: 2 (33.3) n (%)
